Data taken from patent US9315491B2 (DEVELOPMENT CENTER FOR BIOTECHNOLOGY, priority 2009, dated 2016).

Each compound was assayed against recombinant mTOR (Homo sapiens (Human), UniProt P42345) (assay: mTOR kinase assay (33P incorporation into 4EBP1)). Conditions: compound at 10 μM, 10 μM ATP.
Type: biochemical
Description: The activity of the compound against mTOR was examined by measuring the incorporation of ^33P from [γ-^33P]-ATP into 4EBP1. His-tagged, recombinant human 4EBP1 was expressed in E. coli, purified by nickel-nitrilotriacetic acid (Ni-NTA) resins, and stored at −80° C. Phosphorylation of 4EBP1 by mTOR was assayed in the presence or absence of the compound and performed in a final volume of 25 μl reaction buffer containing 300 ng 4EBP1, 50 ng recombinant mTOR (Invitrogen), 50 mM HEPES (pH 7.5), 1 mM EGTA, 0.01% Polysorbate 20, 10 mM MnCl2, 2.5 mM DTT, 10 μM ATP, and 0.5 μCi [γ-33P]-ATP (PerkinElmir) for 30 min at 30° C. The reactions were terminated by adding 3% phosphoric acid. The ^33P labeled 4EBP1 was transferred onto UniFilter-96 GF/B plate (PerkinElmer) and quantified by Top Count Microplate Scintillation Counter (PerkinElmer). For primary screening of kinase activity inhibition, each test compound was evaluated at […] in duplicate. […] The IC50 values of the compounds were determined after carrying out assays at eight serially diluted concentrations of each compound in duplicate. The results were analyzed using linear regression software (GraphPad Prism 5; GraphPad Software Inc.).
IC50 value is defined as the concentration of the test compound which achieves a half-maximal inhibition of the kinase activity.

Chain of recombinant mTOR (P42345 1360-2549): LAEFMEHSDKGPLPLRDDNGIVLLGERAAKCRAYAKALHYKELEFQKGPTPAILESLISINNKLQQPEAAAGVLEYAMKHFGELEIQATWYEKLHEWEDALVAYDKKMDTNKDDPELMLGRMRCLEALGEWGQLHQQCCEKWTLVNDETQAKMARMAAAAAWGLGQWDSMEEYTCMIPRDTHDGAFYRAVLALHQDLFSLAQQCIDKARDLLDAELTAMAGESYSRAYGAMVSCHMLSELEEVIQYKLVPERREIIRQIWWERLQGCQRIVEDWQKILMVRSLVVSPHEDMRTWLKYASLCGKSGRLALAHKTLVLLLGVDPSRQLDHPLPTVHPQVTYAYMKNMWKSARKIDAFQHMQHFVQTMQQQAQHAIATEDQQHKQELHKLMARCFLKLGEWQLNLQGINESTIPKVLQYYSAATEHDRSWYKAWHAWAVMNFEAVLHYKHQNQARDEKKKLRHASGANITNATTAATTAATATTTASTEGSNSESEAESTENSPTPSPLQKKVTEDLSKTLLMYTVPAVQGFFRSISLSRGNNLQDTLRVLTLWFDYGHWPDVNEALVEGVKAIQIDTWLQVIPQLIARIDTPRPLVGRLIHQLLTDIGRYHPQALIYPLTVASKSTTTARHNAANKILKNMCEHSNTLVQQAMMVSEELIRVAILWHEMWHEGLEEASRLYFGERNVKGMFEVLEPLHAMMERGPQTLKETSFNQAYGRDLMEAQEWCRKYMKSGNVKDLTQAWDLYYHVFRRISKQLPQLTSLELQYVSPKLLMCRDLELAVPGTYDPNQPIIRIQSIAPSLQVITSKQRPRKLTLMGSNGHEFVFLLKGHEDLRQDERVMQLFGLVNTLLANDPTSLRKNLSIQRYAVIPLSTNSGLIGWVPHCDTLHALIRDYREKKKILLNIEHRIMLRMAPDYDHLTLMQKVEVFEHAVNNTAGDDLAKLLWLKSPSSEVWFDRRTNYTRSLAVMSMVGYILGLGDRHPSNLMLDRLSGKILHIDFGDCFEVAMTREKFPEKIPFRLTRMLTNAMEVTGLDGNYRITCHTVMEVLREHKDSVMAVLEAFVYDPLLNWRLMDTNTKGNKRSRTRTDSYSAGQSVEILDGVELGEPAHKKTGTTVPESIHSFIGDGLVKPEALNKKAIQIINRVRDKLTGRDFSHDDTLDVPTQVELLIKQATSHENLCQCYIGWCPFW

For `COc1cnc(-c2ccc(NC(=S)Nc3ccc(F)cc3)cc2)nc1N1CCOCC1`, which inhibition at 10 µM is on record?
The inhibition at 10 µM was 89%.

`CCOC(=O)c1nc(-c2cccc(O)c2)nc(N2CCOCC2)c1OCC` [MTR-0037, 5-Ethoxy-2-(3-hydroxy-phenyl)-6-morpholin-4-yl-pyrimidine-4-carboxylic acid ethyl ester] was tested. Which inhibition at 10 µM did it give?
Its inhibition at 10 µM is 98%.

`CCOC(=O)c1nc(-c2ccc3[nH]ccc3c2)nc(N2CCOCC2)c1OCC` [MTR-0054, 5-Ethoxy-2-(1H-indol-5-yl)-6-morpholin-4-yl-pyrimidine-4-carboxylic acid ethyl ester] was tested. Which inhibition at 10 µM did it give?
Its inhibition at 10 µM is 81%.

How did the inhibition at 10 µM turn out when `CCOC(=O)c1nc(-c2cccc(O)c2)nc(N2CCOCC2)c1OC` [MTR-0073, 2-(3-Hydroxy-phenyl)-5-methoxy-6-morpholin-4-yl-pyrimidine-4-carboxylic acid ethyl ester] was run?
Its inhibition at 10 µM is 86%.

For `CSc1c(Cl)nc(-c2ccc(NC(=O)Nc3ccc(Cl)nc3)cc2)nc1N1CCOCC1` [MTR-0077, 1-[4-(4-Chloro-5-methylsulfanyl-6-morpholin-4-yl-pyrimidin-2-yl)-phenyl]-3-(6-chloro-pyridin-3-yl)-urea], which inhibition at 10 µM is on record?
The inhibition at 10 µM was 87%.

How did the inhibition at 10 µM turn out when `CCOC(=O)c1nc(-c2ccc(NC(=O)Nc3ccc(Cl)nc3)cc2)nc(N2CCOCC2)c1OCC` [MTR-0079, 2-{4-[3-(6-Chloro-pyridin-3-yl)-ureido]-phenyl}-5-ethoxy-6-morpholin-4-yl-pyrimidine-4-carboxylic acid ethyl ester] was run?
The inhibition at 10 µM was 83%.

With `CSc1c(Cl)nc(-c2ccc(O)cc2)nc1N1CCOCC1` [MTR-0098, 4-(4-Chloro-5-methylsulfanyl-6-morpholin-4-yl-pyrimidin-2-yl)-phenol] as the compound, how does the inhibition at 10 µM read?
Its inhibition at 10 µM is 86%.

Which inhibition at 10 µM does the source give for `CCOC(=O)c1nc(-c2ccc(NC(=S)Nc3ccccc3)cc2)nc(N2CCOCC2)c1OCC` [MTR-0102, 5-Ethoxy-6-morpholin-4-yl-2-[4-(3-phenyl-thioureido)-phenyl]-pyrimidine-4-carboxylic acid ethyl ester] here?
The inhibition at 10 µM was 81%.

With `CSc1c(Cl)nc(-c2ccc(NC(=O)NCCCl)cc2)nc1N1CCOCC1` [MTR-0108, 1-(2-Chloro-ethyl)-3-[4-(4-chloro-5-methylsulfanyl-6-morpholin-4-yl-pyrimidin-2-yl)-phenyl]-urea] as the compound, how does the inhibition at 10 µM read?
Its inhibition at 10 µM is 89%.

`COc1cnc(-c2cccc(O)c2)nc1N1CCOCC1` [MTR-0116, 3-(5-Methoxy-4-morpholin-4-yl-pyrimidin-2-yl)-phenol] was tested. Which inhibition at 10 µM did it give?
Its inhibition at 10 µM is 81%.

How did the inhibition at 10 µM turn out when `CCOc1c(C(=O)O)nc(-c2ccc(NC(=O)Nc3ccccc3)cc2)nc1N1CCOCC1` [MTR-0118, 5-Ethoxy-6-morpholin-4-yl-2-[4-(3-phenyl-ureido)-phenyl]-pyrimidine-4-carboxylic acid] was run?
The inhibition at 10 µM was 94%.

`CCOc1c(C(=O)N(CC)CC)nc(-c2ccc(NC(=O)Nc3ccccc3)cc2)nc1N1CCOCC1` [MTR-0120, 5-Ethoxy-6-morpholin-4-yl-2-[4-(3-phenyl-ureido)-phenyl]-pyrimidine-4-carboxylic acid diethylamide] was tested. Which inhibition at 10 µM did it give?
Its inhibition at 10 µM is 98%.

With `CCOC(=O)c1nc(-c2ccc(NC(N)=O)cc2)nc(N2CCOCC2)c1OCC` [MTR-0121, 5-Ethoxy-6-morpholin-4-yl-2-(4-ureido-phenyl)-pyrimidine-4-carboxylic acid ethyl ester] as the compound, how does the inhibition at 10 µM read?
Its inhibition at 10 µM is 94%.

For `CSc1c(Cl)nc(-c2ccc(NC(=O)Nc3ccc(N(C)C)cc3)cc2)nc1N1CCOCC1` [MTR-0123, 1-[4-(4-Chloro-5-methylsulfanyl-6-morpholin-4-yl-pyrimidin-2-yl)-phenyl]-3-(4-dimethylamino-phenyl)-urea], which inhibition at 10 µM is on record?
The inhibition at 10 µM was 91%.

Which inhibition at 10 µM does the source give for `CCOc1c(C(N)=O)nc(-c2ccc(NC(=O)Nc3ccccc3)cc2)nc1N1CCOCC1` [MTR-0125, 5-Ethoxy-6-morpholin-4-yl-2-[4-(3-phenyl-ureido)-phenyl]-pyrimidine-4-carboxylic acid amide] here?
The inhibition at 10 µM was 96%.

With `CCNC(=O)Nc1ccc(-c2ncc(OC)c(N3CCOCC3)n2)cc1` [MTR-0129, 1-Ethyl-3-[4-(5-methoxy-4-morpholin-4-yl-pyrimidin-2-yl)-phenyl]-urea] as the compound, how does the inhibition at 10 µM read?
The inhibition at 10 µM was 96%.
